This passage reports IC50 and inhibition results from ChEMBL document CHEMBL1130938, “L-tryptophan urea amides as NK1/NK2 dual antagonists” (Bioorg Med Chem Lett, 1998).

A value given as a limit tells only on which side of the number the result lay.

What all share (type): cell-based
Assay [1] has as its target T1, Substance-P receptor (Homo sapiens, UniProt P25103). Briefly: (§1) Inhibition of cloned human NK1 (Neurokinin 1) receptor, stably expressed in chinese hamster ovary (CHO) cells was determined.
Assay [2] deals with T2, Substance-K receptor (Homo sapiens, UniProt P21452).
T2 sequence (P21452 whole entry): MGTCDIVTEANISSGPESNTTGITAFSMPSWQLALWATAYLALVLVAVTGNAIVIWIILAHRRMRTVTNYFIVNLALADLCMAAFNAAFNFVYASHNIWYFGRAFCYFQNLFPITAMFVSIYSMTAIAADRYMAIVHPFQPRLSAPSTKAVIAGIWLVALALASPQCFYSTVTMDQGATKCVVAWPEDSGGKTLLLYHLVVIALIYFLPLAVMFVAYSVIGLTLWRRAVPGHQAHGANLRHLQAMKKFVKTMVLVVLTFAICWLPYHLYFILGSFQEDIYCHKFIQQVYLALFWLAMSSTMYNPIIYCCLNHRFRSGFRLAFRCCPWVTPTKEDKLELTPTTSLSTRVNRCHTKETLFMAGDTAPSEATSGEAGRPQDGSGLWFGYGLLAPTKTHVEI
Description: Inhibition of cloned human NK2 (Neurokinin 2) receptor, stably expressed in chinese hamster ovary (CHO) cells was determined.

Assay [3] concerns the target T1, Substance-P receptor. The description is as §1. The following applies: concentration not given here.

T1 sequence (P25103 whole entry): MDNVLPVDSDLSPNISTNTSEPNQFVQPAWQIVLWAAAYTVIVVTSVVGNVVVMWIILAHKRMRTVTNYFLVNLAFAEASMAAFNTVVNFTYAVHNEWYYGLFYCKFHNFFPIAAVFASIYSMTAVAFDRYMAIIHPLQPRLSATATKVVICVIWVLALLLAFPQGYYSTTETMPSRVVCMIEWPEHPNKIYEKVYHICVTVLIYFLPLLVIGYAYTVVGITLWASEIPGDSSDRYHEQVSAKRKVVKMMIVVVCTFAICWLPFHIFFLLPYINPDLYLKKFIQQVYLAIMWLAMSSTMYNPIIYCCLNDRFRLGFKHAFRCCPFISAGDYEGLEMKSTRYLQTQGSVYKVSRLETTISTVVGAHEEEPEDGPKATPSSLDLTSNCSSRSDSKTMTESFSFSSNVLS

As for `CC(=O)NC1(c2ccccc2)CCN(C(=O)N[C@@H](Cc2c[nH]c3ccccc23)C(=O)N(C)Cc2ccccc2)CC1`, the 50% inhibitory concentration (IC50) in assay [1] is 77 nM; in assay [2] it was 928 nM.

As to `CSN1CC2(CCN(C(=O)N[C@@H](COCc3ccccc3)C(=O)N(C)Cc3ccccc3)CC2)c2ccccc21`, the concentration for half-maximal inhibition (IC50) in assay [1] is 480 nM; in assay [2], 258 nM.

For the compound `CN(Cc1ccccc1)C(=O)[C@H](Cc1c[nH]c2ccccc12)NC(=O)N1CCC2(CCc3ccccc32)CC1`, the IC50 was found to be 56 nM in assay [1] and 27 nM in assay [2].

As to `O=C(NCCc1ccccc1)[C@H](Cc1c[nH]c2ccccc12)NC(=O)N1CCC2(CCc3ccccc32)CC1`, the values for the IC50 in assay [1] and in assay [2] were 332 nM and 211 nM, respectively.

`CNC(=O)N[C@@H](Cc1c[nH]c2ccccc12)C(=O)OCc1cc(C)cc(C)c1` showed an IC50 in assay [2] greater than 5000 nM.

For `CSN1CC2(CCN(C(=O)N[C@@H](Cc3c[nH]c4ccccc34)C(=O)N(C)Cc3ccccc3)CC2)c2ccccc21`, the half-maximal inhibitory concentration (IC50) in assay [1] was found to be 14 nM; in assay [2], 24 nM.

As to `CSN1CC2(CCN(C(=O)N[C@@H](Cc3c[nH]c4ccccc34)C(=O)N(C)Cc3cc(C(F)(F)F)cc(C(F)(F)F)c3)CC2)c2ccccc21`, the IC50 in assay [1] was 1 nM; in assay [2] it was 4200 nM.

With `CSN1CC2(CCN(C(=O)N[C@@H](Cc3c[nH]c4ccccc34)C(=O)OCc3cc(C(F)(F)F)cc(C(F)(F)F)c3)CC2)c2ccccc21`, the values for the concentration for half-maximal inhibition (IC50) in assay [1] and in assay [2] were 0.58 nM and greater than 1000 nM, respectively.

For the compound `CSN1CC2(CCN(C(=O)N[C@@H](CCc3ccccc3)C(=O)N(C)Cc3ccccc3)CC2)c2ccccc21`, the values for the IC50 in assay [1] and in assay [2] were 1100 nM and 166 nM, respectively.

As to `CCN(Cc1ccccc1)C(=O)[C@H](Cc1c[nH]c2ccccc12)NC(=O)N1CCC2(CCc3ccccc32)CC1`, the values for the IC50 in assay [1] and in assay [2] were 242 nM and 139 nM, respectively.

For `CSN1CC2(CCN(C(=O)N[C@H](Cc3c[nH]c4ccccc34)C(=O)N(C)Cc3ccccc3)CC2)c2ccccc21`, the 50% inhibitory concentration (IC50) in assay [1] stood at 164 nM; in assay [2], 577 nM.

As to `O=C(NCc1ccccc1)[C@H](Cc1c[nH]c2ccccc12)NC(=O)N1CCC2(CCc3ccccc32)CC1`, the values for the IC50 in assay [1] and in assay [2] were 227 nM and 14 nM, respectively.

On to `CN(Cc1ccccc1)C(=O)[C@H](Cc1c[nH]c2ccccc12)NC(=O)N1CCC2(C=Cc3ccccc32)CC1`, for which the half-inhibitory concentration (IC50) amounted to 68 nM in assay [1] and 18 nM in assay [2].

Consider `CSN1CC2(CCN(C(=O)N[C@@H](Cc3c[nH]c4ccccc34)C(=O)OCc3ccccc3)CC2)c2ccccc21`, for which the half-maximal inhibitory concentration (IC50) in assay [1] is 23 nM; in assay [2], 4500 nM.

In turn, `O=C(Nc1ccccc1)[C@H](Cc1c[nH]c2ccccc12)NC(=O)N1CCC2(CCc3ccccc32)CC1` had an inhibition in assay [3] of 39%. In assay [2], the IC50 was determined as 2100 nM.

`CC(=O)N[C@@H](Cc1c[nH]c2ccccc12)C(=O)OCc1cc(C(F)(F)F)cc(C(F)(F)F)c1` [L-732138] returned a half-maximal inhibitory concentration (IC50) in assay [2] greater than 5000 nM.

As to `Cc1cc(C)cc(CN(C)C(=O)[C@H](Cc2c[nH]c3ccccc23)NC(=O)c2ccccc2)c1`, the IC50 in assay [1] is greater than 1100 nM; in assay [2] it was greater than 5000 nM.

`CSN1CC2(CCN(C(=O)N[C@@H](Cc3c[nH]c4ccccc34)C(=O)N(C)Cc3cc(C)cc(C)c3)CC2)c2ccccc21`: the IC50 in assay [1] worked out at 10 nM; in assay [2], 1400 nM.

For `CC(=O)NC1(c2ccccc2)CCN(CC[C@H](CN(C)C(=O)c2ccccc2)c2ccc(Cl)c(Cl)c2)CC1` [SAREDUTANT], the IC50 in assay [1] came out at 800 nM; in assay [2] it was 0.13 nM.

For orientation: IC50 means the concentration that inhibits the measured activity by half. What is called inhibition is the drop in the measured response relative to a control, in per cent. A lower inhibition goes with a response near the control.
